Our source for the Ki values is patent publication US20140163012A1, “PYRIDO-/AZEPINO-BENZOFURAN AND PYRIDO-/AZEPINO-BENZOTHIOPHENE MCH-1 ANTAGONISTS, METHODS OF MAKING, AND USE THEREOF” (Albany Molecular Research, Inc., priority 2012, published 2014).

The term Ki denotes a dissociation constant, usually derived from enzyme kinetics or from competition with a known ligand.

Where a name gives a salt, the structure may show the parent alone.

This test deals with human MCH-1 receptor (Homo sapiens, UniProt Q99705). Kind of test: Binding assay for human melanin-concentrating hormone (MCH-1) receptor, radioligand displacement on CHO-K1 cell membranes. In general terms: Displacement assays read how much labelled ligand stays bound in the presence of the test substance.
Chain of human MCH-1 receptor (Q99705 whole entry): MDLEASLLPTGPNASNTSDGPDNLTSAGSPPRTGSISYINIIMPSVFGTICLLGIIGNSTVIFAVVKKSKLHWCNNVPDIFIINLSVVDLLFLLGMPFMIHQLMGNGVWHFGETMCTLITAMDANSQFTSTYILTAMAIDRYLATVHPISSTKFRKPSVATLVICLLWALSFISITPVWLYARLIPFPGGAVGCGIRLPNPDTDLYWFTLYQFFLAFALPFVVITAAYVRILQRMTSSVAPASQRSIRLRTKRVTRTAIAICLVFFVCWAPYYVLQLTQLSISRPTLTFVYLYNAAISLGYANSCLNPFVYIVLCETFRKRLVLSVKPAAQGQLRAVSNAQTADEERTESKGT
Procedure: Nonspecific binding was determined in the presence of 50 μM 1-(5-(4-cyanophenyl)bicyclo[3.1.0]hexan-2-yl)-3-(4-fluoro-3-(trifluoromethyl)phenyl)-1-(3-(4-methylpiperazin-1-yl)propyl)urea. […] The filters were counted for radioactivity in a liquid scintillation counter (Tri-Carb 2100TR, Packard) using a scintillation cocktail (Ultima Gold MV, Perkin Elmer).
The results are expressed as a percent inhibition of the control radioligand specific binding. The IC50 value (concentration causing a half-maximal inhibition of control specific binding) and Hill coefficient (nH) were determined by non-linear regression analysis of the competition curve using Hill equation curve fitting.
For the compound `O=c1cc(OCc2ccccc2)ccn1-c1ccc2c3c(oc2c1)CNCC3` [Example 2, 4-(Benzyloxy)-1-(1,2,3,4-tetrahydrobenzofuro[2,3-c]pyridin-7-yl)pyridin-2(1H)-one hydrochloride], the affinity, expressed as Ki, was 23 nM.
On to `O=c1cc(OCc2ccc(F)cn2)ccn1-c1ccc2c3c(oc2c1)CNCC3` [Example 3, 4-((5-Fluoropyridin-2-yl)methoxy)-1-(1,2,3,4-tetrahydrobenzofuro[2,3-c]pyridin-7-yl)pyridin-2(1H)-one hydrochloride], for which the affinity, expressed as Ki, was 59 nM.
As for `O=c1cc(-c2ccc(C(F)(F)F)nc2)ccn1-c1ccc2c3c(oc2c1)CNCC3` [Example 4, 1′-(1,2,3,4-Tetrahydrobenzofuro[2,3-c]pyridin-7-yl)-6-(trifluoromethyl)-[3,4′-bipyridin]-2′(1′H)-one hydrochloride], the figure is 1310 nM.
`O=c1cc(-c2ccc(C(F)(F)F)nc2)ccn1-c1ccc2c3c(oc2c1)CCNC3` [Example 5, 1′-(1,2,3,4-Tetrahydrobenzofuro[3,2-c]pyridin-7-yl)-6-(trifluoromethyl)-[3,4′-bipyridin]-2′(1′H)-one hydrochloride]: the Ki is 56 nM.
As for `O=c1cc(OCc2ccccc2)ccn1-c1ccc2c3c(oc2c1)CCNC3` [Example 6, 4-(Benzyloxy)-1-(1,2,3,4-tetrahydrobenzofuro[3,2-c]pyridin-7-yl)pyridin-2(1H)-one hydrochloride], the figure is 3.3 nM.
Next, `O=c1cc(OCc2ccc(F)cn2)ccn1-c1ccc2c3c(oc2c1)CCNC3` [Example 7, 4-((5-Fluoropyridin-2-yl)methoxy)-1-(1,2,3,4-tetrahydrobenzofuro[3,2-c]pyridin-7-yl)pyridin-2(1H)-one hydrochloride]: 7.3 nM; `C[C@@H]1Cc2oc3cc(-n4ccc(OCc5ccccn5)cc4=O)ccc3c2CN1` [Example 8, (R)-1-(3-Methyl-1,2,3,4-tetrahydrobenzofuro[3,2-c]pyridin-7-yl)-4-(pyridin-2-ylmethoxy)pyridin-2(1H)-one hydrochloride]: 57 nM; `C[C@@H]1Cc2oc3cc(-n4ccc(OCc5ccc(F)cn5)cc4=O)ccc3c2CN1` [Example 9, (R)-4-((5-Fluoropyridin-2-yl)methoxy)-1-(3-methyl-1,2,3,4-tetrahydrobenzofuro[3,2-c]pyridin-7-yl)pyridin-2(1H)-one]: 10 nM.
As for `O=c1cc(OCc2ccc(Cl)cn2)ccn1-c1ccc2c3c(oc2c1)CCNC3` [Example 10, 4-((5-Chloropyridin-2-yl)methoxy)-1-(1,2,3,4-tetrahydrobenzofuro[3,2-c]pyridin-7-yl)pyridin-2(1H)-one hydrochloride], the figure is 3.3 nM; as for `O=c1cc(-c2ccc(C(F)(F)F)cn2)ccn1-c1ccc2c3c(oc2c1)CCNC3` [Example 11, 1′-(1,2,3,4-Tetrahydrobenzofuro[3,2-c]pyridin-7-yl)-5-(trifluoromethyl)-[2,4′-bipyridin]-2′(1′H)-one hydrochloride], 166 nM; as for `O=c1cc(-c2ccc(C(F)(F)F)cn2)ccn1-c1ccc2c3c(sc2c1)CNCC3` [Example 12, 1-(1,2,3,4-Tetrahydrobenzothieno[2,3-c]pyridin-7-yl)-4-(5-(trifluoromethyl)pyridin-2-yl)pyridin-2(1H)-one hydrochloride], 93 nM.
`O=c1cc(OCc2ccc(Cl)cn2)ccn1-c1ccc2c3c(sc2c1)CNCC3` [Example 13, 4-((5-Chloropyridin-2-yl)methoxy)-1-(1,2,3,4-tetrahydrobenzothieno[2,3-c]pyridin-7-yl)pyridin-2(1H)-one hydrochloride] displayed a Ki of 3.1 nM.
Regarding `O=c1cc(OCc2ccc(F)cn2)ccn1-c1ccc2c3c(sc2c1)CNCC3` [Example 14, 4-((5-Fluoropyridin-2-yl)methoxy)-1-(1,2,3,4-tetrahydrobenzothieno[2,3-c]pyridin-7-yl)pyridin-2(1H)-one hydrochloride], the Ki worked out at 6.2 nM.
